In ChEMBL document CHEMBL3885881, “DrugMatrix”:

Species on record: Rattus norvegicus
Experiment: DrugMatrix - Regimen: Daily Repeat
Format: toxicity, organism-based, Sprague-Dawley
Parameters: regimen Daily Repeat, gender Male, age 6-8 weeks
Conditions: in vivo, po, route oral GAVAGE, vehicle 100 % WATER; for ABSOLUTE BASOPHIL / ABSOLUTE EOSINOPHIL / ABSOLUTE LYMPHOCYTE / ABSOLUTE MONOCYTE / ABSOLUTE SEGMENTED NEUTROPHIL / BASOPHIL / EOSINOPHIL / ERYTHROCYTE COUNT / HEMATOCRIT / HEMOGLOBIN / LEUKOCYTE COUNT / LYMPHOCYTE / MEAN CORPUSCULAR HEMOGLOBIN / MEAN CORPUSCULAR HEMOGLOBIN CONCENTRATION / MEAN CORPUSCULAR VOLUME / MONOCYTE / NEUTROPHIL / NUCLEATED RED BLOOD CELLS / PLATELET COUNT: tissue Blood; for ALANINE AMINOTRANSFERASE / ALBUMIN / ALKALINE PHOSPHATASE / ASPARTATE AMINOTRANSFERASE / BLOOD UREA NITROGEN / CARBON DIOXIDE / CHLORIDE / CHOLESTEROL / CREATINE PHOSPHOKINASE / CREATININE / GLUCOSE / LACTATE DEHYDROGENASE / LIPASE / PHOSPHORUS / POTASSIUM / SODIUM / TOTAL BILIRUBIN / TOTAL PROTEIN / URIC ACID: tissue Plasma
[1] = 200 mg/kg, 120 h, dose level Low, time 5 day
[2] = 2625 mg/kg, 72 h, dose level High, time 3 day
[3] = 2625 mg/kg, 120 h, dose level High, time 5 day

## O=C(O)c1cccnc1 [NIACIN]
[1]
  ABSOLUTE BASOPHIL: 0 CELLS/uL
  ABSOLUTE EOSINOPHIL: 0 CELLS/uL
  ABSOLUTE LYMPHOCYTE: 13805.67 CELLS/uL
  ABSOLUTE MONOCYTE: 0 CELLS/uL
  ABSOLUTE SEGMENTED NEUTROPHIL: 1394.33 CELLS/uL
  BASOPHIL: 0%
  EOSINOPHIL: 0%
  ERYTHROCYTE COUNT: 5.57 x10E6/uL
  HEMATOCRIT: 34.77%
  HEMOGLOBIN: 13.77 G/DL
  LEUKOCYTE COUNT: 15.2 x10E3/uL
  LYMPHOCYTE: 91%
  MEAN CORPUSCULAR HEMOGLOBIN: 24.73 pg
  MEAN CORPUSCULAR HEMOGLOBIN CONCENTRATION: 39.57 G/DL
  MEAN CORPUSCULAR VOLUME: 62.53 fL
  MONOCYTE: 0%
  NEUTROPHIL: 9%
  NUCLEATED RED BLOOD CELLS: 0.33 /100WBC
  PLATELET COUNT: 1180.67 x10E3/uL
  ALANINE AMINOTRANSFERASE: 55.33 u/L
  ALBUMIN: 4.03 G/DL
  ALKALINE PHOSPHATASE: 296.33 u/L
  ASPARTATE AMINOTRANSFERASE: 77.67 u/L
  BLOOD UREA NITROGEN: 12.67 mg/dL
  CARBON DIOXIDE: 31.33 mmol/L
  CHLORIDE: 101.67 MEQ/L
  CHOLESTEROL: 76.33 mg/dL
  CREATINE PHOSPHOKINASE: 209 u/L
  CREATININE: 0.23 mg/dL
  GLUCOSE: 140 mg/dL
  LACTATE DEHYDROGENASE: 212 u/L
  LIPASE: 13 u/L
  PHOSPHORUS: 12.63 mg/dL
  POTASSIUM: 6.55 MEQ/L
  SODIUM: 145.13 MEQ/L
  TOTAL BILIRUBIN: 0.13 mg/dL
  TOTAL PROTEIN: 5.93 G/DL
  URIC ACID: 1.43 mg/dL
[2]
  ABSOLUTE BASOPHIL: 0 CELLS/uL
  ABSOLUTE EOSINOPHIL: 135 CELLS/uL
  ABSOLUTE LYMPHOCYTE: 10224 CELLS/uL
  ABSOLUTE MONOCYTE: 258 CELLS/uL
  ABSOLUTE SEGMENTED NEUTROPHIL: 1683 CELLS/uL
  BASOPHIL: 0%
  EOSINOPHIL: 1%
  ERYTHROCYTE COUNT: 5.89 x10E6/uL
  HEMATOCRIT: 36.17%
  HEMOGLOBIN: 14.27 G/DL
  LEUKOCYTE COUNT: 12.3 x10E3/uL
  LYMPHOCYTE: 84%
  MEAN CORPUSCULAR HEMOGLOBIN: 24.23 pg
  MEAN CORPUSCULAR HEMOGLOBIN CONCENTRATION: 39.43 G/DL
  MEAN CORPUSCULAR VOLUME: 61.33 fL
  MONOCYTE: 2%
  NEUTROPHIL: 13%
  NUCLEATED RED BLOOD CELLS: 0.33 /100WBC
  PLATELET COUNT: 1326 x10E3/uL
  ALANINE AMINOTRANSFERASE: 45 u/L
  ALBUMIN: 3.73 G/DL
  ALKALINE PHOSPHATASE: 269.33 u/L
  ASPARTATE AMINOTRANSFERASE: 105 u/L
  BLOOD UREA NITROGEN: 15 mg/dL
  CARBON DIOXIDE: 29 mmol/L
  CHLORIDE: 100.33 MEQ/L
  CHOLESTEROL: 68.67 mg/dL
  CREATINE PHOSPHOKINASE: 532.33 u/L
  CREATININE: 0.18 mg/dL
  GLUCOSE: 145.67 mg/dL
  LACTATE DEHYDROGENASE: 900 u/L
  LIPASE: 11.33 u/L
  PHOSPHORUS: 12.33 mg/dL
  POTASSIUM: 6.2 MEQ/L
  SODIUM: 144.73 MEQ/L
  TOTAL BILIRUBIN: 0.13 mg/dL
  TOTAL PROTEIN: 5.57 G/DL
  URIC ACID: 1.47 mg/dL
[3]
  ABSOLUTE BASOPHIL: 0 CELLS/uL
  ABSOLUTE EOSINOPHIL: 0 CELLS/uL
  ABSOLUTE LYMPHOCYTE: 15227.67 CELLS/uL
  ABSOLUTE MONOCYTE: 166 CELLS/uL
  ABSOLUTE SEGMENTED NEUTROPHIL: 1206.33 CELLS/uL
  BASOPHIL: 0%
  EOSINOPHIL: 0%
  ERYTHROCYTE COUNT: 5.68 x10E6/uL
  HEMATOCRIT: 36.37%
  HEMOGLOBIN: 14.23 G/DL
  LEUKOCYTE COUNT: 16.6 x10E3/uL
  LYMPHOCYTE: 91.67%
  MEAN CORPUSCULAR HEMOGLOBIN: 25.07 pg
  MEAN CORPUSCULAR HEMOGLOBIN CONCENTRATION: 39.17 G/DL
  MEAN CORPUSCULAR VOLUME: 64 fL
  MONOCYTE: 1%
  NEUTROPHIL: 7.33%
  NUCLEATED RED BLOOD CELLS: 0.33 /100WBC
  PLATELET COUNT: 1260.67 x10E3/uL
  ALANINE AMINOTRANSFERASE: 55 u/L
  ALBUMIN: 4.07 G/DL
  ALKALINE PHOSPHATASE: 397.33 u/L
  ASPARTATE AMINOTRANSFERASE: 96 u/L
  BLOOD UREA NITROGEN: 16.67 mg/dL
  CARBON DIOXIDE: 32.33 mmol/L
  CHLORIDE: 100.67 MEQ/L
  CHOLESTEROL: 55.33 mg/dL
  CREATINE PHOSPHOKINASE: 323.67 u/L
  CREATININE: 0.2 mg/dL
  GLUCOSE: 151 mg/dL
  LACTATE DEHYDROGENASE: 666 u/L
  LIPASE: 10.33 u/L
  PHOSPHORUS: 11.7 mg/dL
  POTASSIUM: 6.01 MEQ/L
  SODIUM: 145.9 MEQ/L
  TOTAL BILIRUBIN: 0.27 mg/dL
  TOTAL PROTEIN: 5.7 G/DL
  URIC ACID: 1.43 mg/dL
